Source: US20260364013A1, “COMPOSITION AND METHOD OF PREPARATION OF BLOACTIVE TRITERPENOID MILK FAT GLOBULE FORMULATIONS” (EFNATICS B.V., priority 2023, published 2026)

Assays:
cancer cell lines = settings: cited from earlier work
tumor [1] = test: Anti-tumor effect in mice after oral liposomal betulinic acid; assay type: in vivo; settings: extrapolated from 150 mg/kg weekly oral dose in mice
[2] = at a range of molar ratios; cited from earlier work
[3] = test system: stearoyl-CoA-desaturase (SCD-1); settings: role: inhibitor; cited from earlier work
[4] = test system: tumor growth of predominant cancer types; settings: preclinically in vivo; cited from earlier work
[5] = at concentrations effectively limiting cancer growth, up to 500 mg per kg bodyweight; cited from earlier work
[6] = test system: non-cancerous healthy cells; settings: in vitro; cited from earlier work
tumor [7] = settings: oral, liposomal betulinic acid; cited from earlier work

Row | Structure (SMILES) | Activity against cancer types in vitro (cancer cell lines) | Weekly dose extrapolated to an individual of 80 kg (tumor [1]) | Miscibility with outer leaflet membrane phospholipids [2] | Effect on SCD-1 activity [3] | Tumor growth inhibition [4] | Signs of toxicity in animal experiments [5] | Cytotoxicity for non-cancerous healthy cells [6] | Weekly orally administered dose required for the observed anti-tumor effects in mice (tumor [7])
1 | C=C(C)[C@@H]1CC[C@]2(C(=O)O)CC[C@]3(C)[C@H](CC[C@@H]4[C@@]5(C)CC[C@H](O)C(C)(C)[C@@H]5CC[C@]43C)[C@@H]12 [betulinic acid, (3β)-3-Hydroxylup-20 (29)-en-28-oic acid] | broad activity against all prevalent cancer types in vitro | 12 gr | miscible | inhibit the activity of stearoyl-CoA-desaturase (SCD-1) | inhibits tumor growth of predominant cancer types | no signs of toxicity were observed | absent | 150 mg/kg bodyweight
2 | C=C(C)[C@@H]1CC[C@]2(C)CC[C@]3(C)[C@H](CC[C@@H]4[C@@]5(C)CC[C@H](O)C(C)(C)[C@@H]5CC[C@]43C)[C@@H]12 [lupeol, (3β)-Lup-20 (29)-en-3-ol] | – | – | miscible | – | – | – | – | –
